Test results: US8420692B1, “Heterocyclic and carbonate derivatives of NDGA and their use as new anti-HIV and anti-cancer agents” (The Johns Hopkins University, priority 2006, dated 2013)
Read-outs that look alike come from different tables or passages of the source.

Legend:
[1] = tested on: HIV Tat-regulated transactivation; experiment: cells; format: cell-based; conditions: for IC50: read-out: IC50, HIV Tat-regulated transactivation; for Inhibition (%) of HIV Tat-regulated Transactivation in COS Cells: average of three experiments
Experimental: The COS cells were co-transfected with a Tat-producing plasmid and a plasmid containing the HIV LTR linked to the SeAP reporter gene. Transfected cells were treated with various concentrations of 5b P4N. After 48 h, aliquots of media were removed and analysis of SeAP activity was performed. The percent inhibition of SeAP activity by 5b P4N ? was calculated in comparison with the percent of growth inhibition of untransfected COS cells by P4N ?
The medium used for dilution of compounds and maintenance of cultures during the assay was the same as described above. Cultures were maintained in disposable tissue culture labware at 37° C. in a humidified atmosphere of CO2 (5.0%) in air. Compounds were dissolved as stock solutions in water or dimethyl sulfoxide (DMSO) at the concentration of 10 mM. The stock solutions were diluted with H2O (5a-d) or DMSO (6a,b and 7) and dilute by medium to the desired concentration by a 30-s vortex just before addition into the cell culture. Triplicate cell samples were seeded at density of ˜1.5×10^4 cell per well in Libro 24-well flat-bottom culture dishes (17-mm diameter), which were incubated for 24 h until they reached 50% confluence. The cells were cotransfected by the calcium phosphate procedure with DNA from plasmids pBC12/CMV/t2 (coding for Tat function, 0.20 μg/well) and pBC12/HIV/SeAP (0.40 μg/well). Cells and DNAs were kept in contact for 6.0 h; then the medium was aspirated and replaced by 500 μL of medium containing the test compound. The compound-treated cells were then incubated for additional 48 h. At the end of incubation, an aliquot of cell culture medium was removed and SeAP activities were analyzed by spectrametric method.^20 The sample of culture medium were heated at 65° C. for 5.0 min to inactivate endogenous phosphatases selectively (SeAP is thermal stable). The buffer solution of 2×SeAP (100 μL, 1.0 M diethanolamine, pH 9.8; 0.50 mM MgCl2; 10 mM L-homoarginine) was added to the culture medium sample (100 μL) in a 96-well flat-bottom culture dish (Corning). Then, the substrate solution ([…], 120 mM, p-nitrophenyl phosphate dissolved in 1×SeAP buffer) was dispensed into each well containing the reaction mixture. The absorbance at wavelength 405 nm specific for the hydrolysis product was read at 2.5 min intervals at 37° C. over the course of 60 min on an EL340i microplate reader (Bio-tek Instruments) with 5 s automatic shaking before each reading.
Two plasmid constructs^19 were used to test the effect of synthesized NDGA derivatives on Tat-regulated HIV transactivation as described previously.^12,13,19 The plasmid constructs included a cytomegalovirus (CMV) promoter driven tat gene and SP1 regulated HIV LTR promoter driven reporter gene (i.e., SeAP). A standard SeAP assay in the absence of drug was initially run to find out efficiency of transfection.

[2] = Stability in aqueous solution (time dependent UV spectra); format: physicochemical
Experimental: FIG. 1: Stability of Two NDGA Derivatives G4N and P4N(HCl salts) in Aqueous Solution. Time Dependent Changes in UV spectra showing (a) G4N is unstable and (b) meso-2,3-dimethyl-1,4-bis(3,4-[2-piperidino)ethoxyphenyl])butane (P4N) (compound 5b in Scheme 1) (day 1, 2, 8, 13, 28) is stable in Milli-Q water after 28 days at 20° C.
The new NDGA derivatives (Scheme 1) were found stable in aqueous solution; >99% of these compounds remained intact after 28 days (see FIG. 1(b)). In a sharp contrast, >96% G4N (4) decomposed in aqueous solution within 24 h (see FIG. 1(a)).

[3] = tested on: HIV Tat-regulated transactivation; conditions: values from references 9 and 12; read-out: IC50, Tat-regulated SeAP production (reference compounds); cited from earlier work
[4] = Human immunodeficiency virus 1, COS, read-out: Inhibition (%) of HIV Tat-regulated Transactivation in COS Cells
[5] = COS cells, SeAP, mean of triplicate determinations

Structure (SMILES) | Inhibition (%) of HIV Tat-regulated Transactivation in COS Cells ([1]; 0.10 μM) | Inhibition (%) of HIV Tat-regulated Transactivation in COS Cells ([1]; 0.25 μM) | Inhibition (%) of HIV Tat-regulated Transactivation in COS Cells ([1]; 0.50 μM) | Inhibition (%) of HIV Tat-regulated Transactivation in COS Cells ([1]; 1.0 μM) | Inhibition (%) of HIV Tat-regulated Transactivation in COS Cells ([1]; 2.5 μM) | Inhibition (%) of HIV Tat-regulated Transactivation in COS Cells ([1]; 5.0 μM) | Inhibition (%) of HIV Tat-regulated Transactivation in COS Cells ([1]; 10 μM) | Inhibition (%) of HIV Tat-regulated Transactivation in COS Cells ([1]; 20 μM) | Inhibition (%) of HIV Tat-regulated Transactivation in COS Cells ([1]; 40 μM) | Inhibition (%) of HIV Tat-regulated Transactivation in COS Cells ([1]; 80 μM) | Inhibition (%) of HIV Tat-regulated Transactivation in COS Cells ([1]; 100 μM) | IC50 [1, 5] | IC50 [3] | other results
C[C@H](Cc1ccc2oc(=O)oc2c1)[C@@H](C)Cc1ccc2oc(=O)oc2c1 [Compound 7, meso-2,3-Dimethyl-1,4-bis(benzo[d][1,3]-dioxol-2-one)butane] | – | – | – | – | – | – | – | – | – | – | – | – | – | IC50 ([1]; Human immunodeficiency virus 1, COS): 8.54 µM; inhibition at 0.1 µM [1, 4]: 7.5%; inhibition at 0.25 µM [1, 4]: 18.1%; inhibition at 0.5 µM [1, 4]: 4.2%; inhibition at 1 µM [1, 4]: 5.9%; inhibition at 2.5 µM [1, 4]: 23.7%; inhibition at 5 µM [1, 4]: 47.1%; inhibition at 10 µM [1, 4]: 51.2%; inhibition at 20 µM [1, 4]: 68.8%; inhibition at 40 µM [1, 4]: 85.7%; inhibition at 80 µM [1, 4]: 96.3%; inhibition at 100 µM [1, 4]: 91.6%; melting point: 172.6 to 173.4 °C
C[C@H](Cc1ccc(OCCN2CCOCC2)c(OCCN2CCOCC2)c1)[C@@H](C)Cc1ccc(OCCN2CCOCC2)c(OCCN2CCOCC2)c1.Cl.Cl.Cl.Cl [Compound 5c, meso-2,3-Dimethyl-1,4-bis(3,4-[2-(morpholino)ethoxyphenyl])butane Tetrakishydrochloride Salt] | 5.0% | 16.5% | 9.9% | 8.1% | 4.6% | 13.3% | 25.4% | 58.9% | 86.0% | 96.8% | 100% | 17.3 µM | – | –
C[C@H](Cc1ccc(OCCN2CCCC2)c(OCCN2CCCC2)c1)[C@@H](C)Cc1ccc(OCCN2CCCC2)c(OCCN2CCCC2)c1.Cl.Cl.Cl.Cl [Compound 5a, meso-2,3-Dimethyl-1,4-bis(3,4-[2-(pyrrolidino)ethoxyphenyl])butane Tetrakishydrochloride Salt] | 18.1% | 15.4% | 27.2% | 19.6% | 31.0% | 14.1% | 26.3% | 59.1% | 94.8% | 97.1% | 100% | 17.2 µM | – | –
C[C@H](Cc1ccc(OCCCN2CCOCC2)c(OCCCN2CCOCC2)c1)[C@@H](C)Cc1ccc(OCCCN2CCOCC2)c(OCCCN2CCOCC2)c1.Cl.Cl.Cl.Cl [Compound 5d, meso-2,3-Dimethyl-1,4-bis(3,4-[3-(morpholino)propoxyphenyl])butane Tetrakishydrochloride Salt] | 15.0% | 15.9% | 10.6% | 9.5% | 52.7% | 89.5% | 96.0% | 99.9% | 99.8% | 100% | 89.5% | 2.41 µM | – | –
C[C@H](Cc1ccc(OC(=O)CN(C)C)c(OC(=O)CN(C)C)c1)[C@@H](C)Cc1ccc(OC(=O)CN(C)C)c(OC(=O)CN(C)C)c1 [Compound G4N, (tetra-O-dimethylglycyl)nordihydroguaiaretic acid] | – | – | – | – | – | – | – | – | – | – | – | – | – | Stability in Milli-Q water (UV spectra) ([2]; HCl salts, 28 days at 20° C., FIG. 1): unstable; Compound decomposed in aqueous solution ([2]; within 24 h): > 96%
COC(=O)Oc1ccc(C[C@@H](C)[C@@H](C)Cc2ccc(OC(=O)OC)c(OC(=O)OC)c2)cc1OC(=O)OC [Compound 6b, meso-2,3-Dimethyl-1,4-bis[3,4-(methylphenyl carbonate)]butane] | 9.8% | 12.3% | 16.0% | 13.1% | 15.1% | 38,0% | 51,6% | 58.4% | 70.8% | 93.4% | 88.9% | 9.41 µM | – | –
COc1cc(C[C@H](C)[C@H](C)Cc2ccc(O)c(O)c2)ccc1O [Mal.4] | – | – | – | – | – | – | – | – | – | – | – | – | 25 µM | –
C[C@H](Cc1ccc(O)c(O)c1)[C@@H](C)Cc1ccc(O)c(O)c1 [NDGA, Nordihydroguaiaretic acid] | – | – | – | – | – | – | – | – | – | – | – | – | 20 µM | –
COc1ccc(C[C@@H](C)[C@@H](C)Cc2ccc(OC)c(OC)c2)cc1OC [Compound M4N, (tetra-O-methyl)nordihydroguaiaretic acid] | – | – | – | – | – | – | – | – | – | – | – | – | 11.1 µM | –
C[C@H](Cc1ccc(OC(=O)N2CCCCC2)c(OC(=O)N2CCCCC2)c1)[C@@H](C)Cc1ccc(OC(=O)N2CCCCC2)c(OC(=O)N2CCCCC2)c1 [Compound 6a, meso-2,3-Dimethyl-1,4-bis[3,4-(phenylpiperidine-1-carboxylate)]butane] | 0% | 3.5% | 5.8% | 11.7% | 46.2% | 78.6% | 84.0% | 86.1% | 83.8% | 90.1% | 89.8% | 2.79 µM | – | –
